Assay results taken from patent US20230201290A1, “TGF-BETA INHIBITION, AGENTS AND COMPOSITION THEREFOR” (GMP BIOTECHNOLOGY LIMITED, priority 2020, published 2023).

Key:
[1] = system: TGF-β2 secretion; assay: TGF-β2 secretion in human tumor cell lines; assay type: cell-based; details: human HGG cell line A-172, 7 days, 10 trabedersen (unit not given)
Description: The effect of trabedersen on TGF-β2 secretion was analyzed in cell lines of human HGG, human pancreatic carcinoma, malignant melanoma, colorectal carcinoma, and other tumors (prostate carcinoma, renal cell carcinoma, and non-small cell lung carcinoma). The TGF-β2 concentration in cell culture supernatants after treatment with trabedersen for 7 days was analyzed.
The biological activity of truncated trabedersen, i.e. metabolites, in comparison to full-length trabedersen with respect to inhibition of TGF-β2 secretion was tested in the human HGG cell line A-172.

[2] = system: patient derived autologous HGG cells; assay: LAK cell-mediated autologous cytotoxicity (calcein-release assay); assay type: cell-based, human; details: untreated control 16%
Description: Human HGG cells were obtained from surgical specimens of 5 patients. PBMCs from these patients were activated with human recombinant IL-2 to generate lymphokine-activated killer (LAK) cells as effector cells, which are known to lyse most autologous and allogenic fresh human tumor cells. LAK cell-mediated cytotoxicity against the patient derived autologous HGG cells (target cells) was tested in a cell co-culture system using the calcein-release assay.

[3] = system: solid tumors; assay: Phase I/II study P001, i.v. trabedersen: all patients, MTD and DLT; assay type: in vivo, human
Source text: (§1) P001 is a completed Phase I/II dose escalation study. Primary objective is the determination of the MTD as well as the DLT of 2 cycles as core treatment and up to 8 optional extension cycles of trabedersen administered i.v. for 4 or 7 d every other week, as described in the following. The study followed a classical cohort design with 3 evaluable patients per cohort. Patients treated with the 1st schedule received trabedersen continuously for 7 d, followed by a treatment-free interval of 7 d for each treatment cycle (7-d-on, 7-d-off). After the MTD had been reached for this schedule, a 2nd schedule of 4 d trabedersen administration, followed by a treatment-free interval of 10 d for each treatment cycle was started (4-d-on, 10-d-off). In this treatment schedule the MTD has not been reached.
Primary objective of the study is the determination of the maximum tolerated dose (MTD) as well as the dose limiting toxicity (DLT) of two cycles of Trabedersen administered every other week. Secondary objectives include safety and tolerability, pharmacokinetic profile and potential antitumor activity of intravenous Trabedersen treatment.
(§2) Trabedersen was administered as i.v. continuous infusion for 4 or 7 days every other week via an implanted subcutaneous port system connected to a portable pump and with a flow rate of 0.8 mL/h. The core treatment consisted of 2 treatment cycles. Up to 8 optional extension cycles were administered in case of clinical benefit.
The dose escalation followed a classical cohort design with at least 3 and up to 6 patients per cohort receiving Trabedersen. The starting dose was chosen based on the Lowest-Observed-Adverse-Effect Level (LOAEL) determined in monkeys as the most relevant species. […] The Data and Safety Monitoring Board (DSMB) regularly reviewed available safety and efficacy data before each escalation step. Generally, if patients of one cohort had tolerated the therapy, the next cohort received the next higher dose. Toxicity was assessed based on National Cancer Institute-Common Toxicity Criteria (NCI-CTC, version 2). A DLT was defined as an at least possibly related, medically important adverse event, of NCI-CTC grade 3 or 4, a worsening by ≥2 grades from baseline for renal or hepatic toxicities, a worsening by ≥3 grades from baseline for other laboratory parameters, or other toxicities considered dose-limiting by the investigator. If more than 2 patients of a cohort had DLTs, the next lower dose was defined as MTD. Dose-escalation had to be stopped if MTD was reached.
(§3) The overall survival is calculated for all patients as the survival time from the onset of treatment with study medication to death due to any cause and analyzed with the Kaplan-Meier method.
Altogether 33 patients with advanced pancreatic cancer, malignant melanoma, or colorectal cancer were enrolled for dose escalation (Table 15). Patients treated in the first treatment schedule received Trabedersen continuously for 7 days, followed by a treatment-free interval of 7 days for each treatment cycle (7-days-on, 7-days-off).
After the MTD had been reached in the 7-days-on, 7-days-off schedule, a second dose escalation was started using a modified treatment schedule with 4 days Trabedersen administration, followed by a treatment-free interval of 10 days for each treatment cycle (4-days-on, 10-days-off).

[4] = system: advanced pancreatic cancer; assay: Phase I/II study P001: patients with pancreatic cancer; assay type: in vivo, human
Source text: as §1, §2, §3
Altogether 21 patients with pancreatic cancer were treated during dose escalation.
There was no clear dose-response relationship, neither in the 7-days-on, 7-days-off schedule nor in the 4-days-on, 10-days-off schedule. A similar pattern is seen when the 5 patients with malignant melanoma and 5 patients with colorectal cancer treated during dose-escalation are also included.

[5] = system: colorectal cancer; assay: Phase I/II study P001: patients with colorectal cancer; assay type: in vivo, human; details: all colorectal patients independent of dose and schedule
Source text: as §1
Trabedersen was administered as i.v. continuous infusion for 4 or 7 days every other week via an implanted subcutaneous port system connected to a portable pump and with a flow rate of 0.8 mL/h. […]
as §3
One patient with AJCC Stage IV colorectal cancer treated in the 240 mg/m^2/day cohort of the 7-day-on, 7-day-off schedule was assessed with stable disease and survived for 7.3 months. […]

[6] = system: SARS-CoV (Urbani strain)
[7] = system: SARS-COV-2 USA_WA1/2020
[8] = system: Vero 76 cells
[9] = system: IL-6; details: data-mining of P001 cytokine profiling
[10] = system: C8161 human melanoma; assay: Orthotopic C8161 human melanoma model; details: group 2: 16 mg/kg SC 3 times/week
[11] = 4-days-on, 10-days-off, 140 mg/m^2/day
[12] = 4-days-on, 10-days-off, 140 mg/m^2/day (additional patients)
[13] = 4-days-on, 10-days-off, 190 mg/m^2/day
[14] = 4-days-on, 10-days-off, 250 mg/m^2/day
[15] = 4-days-on, 10-days-off, 330 mg/m^2/day
[16] = 7-days-on, 7-days-off, 40 mg/m^2/day
[17] = 7-days-on, 7-days-off, 80 mg/m^2/day
[18] = 7-days-on, 7-days-off, 160 mg/m^2/day
[19] = 7-days-on, 7-days-off, 240 mg/m^2/day

Substance: cggcatgtct attttgta (antisense CGGCATGTCTATTTTGTA; chemistry not given here) [OT-101]
- highest inhibitory effect on TGF-β2 secretion [1]: 64%
- autologous cytotoxicity against human HGG cells, mean [2]: 40%
- Dose limiting toxicities (NCI-CTC grade) [3, 11]: — 1 gastrointestinal bleeding (3)
- Median Overall Survival, All patients [3, 11]: 14.5 months
- Median Overall Survival, All patients [3, 12]: 6.0^2 months
- Median Overall Survival, All patients [3, 13]: 9.3 months
- Median Overall Survival, All patients [3, 14]: 9.8 months
- Median Overall Survival, All patients [3, 15]: 3.0 months
- MTD ([3]; 4-days-on, 10-days-off, 140 to 330 mg/m^2/day): without reaching an MTD
- MTD ([3]; 7-days-on, 7-days-off schedule): 160 mg/m^2/day
- Median Overall Survival, All patients [3, 16]: 6.9 months
- Median Overall Survival, All patients [3, 17]: 9.2 months
- Median Overall Survival, All patients [3, 18]: 2.9 months
- Median Overall Survival, All patients [3, 19]: 6.5 months
- Dose limiting toxicities (NCI-CTC grade) ([3]; 7-days-on, 7-days-off, 240 mg/m^2/day, listed as Trabedersen): 2 thrombocytopenias, 1 exanthema and — 1 exanthema (3) and — 2 thrombocytopenias (3)
- mOS ([4]; 2nd-line therapy, independent of dose and schedule): 8.9 months
- mOS ([4]; 2nd-line, 140 mg/m^2/day 4-on/10-off, no subsequent chemotherapy): 2.6 months
- mOS ([4]; 2nd-line, 140 mg/m^2/day 4-on/10-off, with subsequent chemotherapy): 16.9 months
- mOS ([4]; 2nd-line, 140 mg/m^2/day, 4-days-on, 10-days-off): 14.5 months
- Median Overall Survival, Patients with pancreatic cancer [4, 11]: 14.5 months
- Median Overall Survival, Patients with pancreatic cancer [4, 12]: 3.3 months
- Median Overall Survival, Patients with pancreatic cancer [4, 13]: 6.2 months
- Median Overall Survival, Patients with pancreatic cancer [4, 14]: 7.3 months
- Median Overall Survival, Patients with pancreatic cancer [4, 15]: 2.4 months
- Median Overall Survival, Patients with pancreatic cancer [4, 16]: 6.9 months
- Median Overall Survival, Patients with pancreatic cancer [4, 17]: 4.6 months
- Median Overall Survival, Patients with pancreatic cancer [4, 18]: 3.9 months
- Median Overall Survival, Patients with pancreatic cancer [4, 19]: 5.5 months
- mOS ([4]; all 35 pancreatic carcinoma patients, independent of dose and schedule): 4.9 months
- mOS ([4]; dose escalation, 4-days-on, 10-days-off schedule): 9.3 months
- mOS ([4]; dose escalation, 7-days-on, 7-days-off schedule): 5.7 months
- mOS [5]: 3.0 months
- EC50: 50% effective antiviral concentration ([6]; SARS-CoV (Urbani strain), Vero 76, CPE neutral red, day 5): 7.6 µg/mL
- SI (CC50/EC50) ([6]; SARS-CoV, Vero 76 cells): >38
- SI=CC50/EC50 ([7]; SARS-CoV-2): >500
- SI (CC50/EC50) ([7]; SARS-CoV-2, Vero 76 cells): >500
- EC50: 50% effective antiviral concentration ([7]; SARS-CoV-2 USA_WA1/2020, Vero 76, CPE neutral red, day 5): 2.0 µg/mL
- EC50 ([7]; read-out: EC50 (value in brackets), SARS-CoV-2 USA_WA1/2020, Vero 76): 0.33 µM
- CC50 [8]: > 1000 µg/mL
- Toxicity at the highest dose ([8]; 1000 μg/ml): not toxic
- signal of cytokine storm following treatment [9]: no signal of cytokine storm
- Tumor growth suppressed versus control group 1 on day 42 [10]: 2%
